Measurements from patent US8022057B2, “MAPK/ERK kinase inhibitors” (Takeda Pharmaceutical Company Limited, priority 2007, dated 2011).

Target: T1, MEK1 (Homo sapiens, UniProt Q02750, DEL33-52/S218E/S222D)
T1 construct: 6-histidine tag (pFastbac leader) (N); made in house; host or cells: Spodoptera frugiperda Sf9 (baculovirus) for MEK1; E. coli for GST-ERK1
Experiment: MEK1 inhibition, fluorescence polarization (IMAP) assay with ERK1 and FI-Erktide
Type: biochemical
Settings: 1 nM MEK1, 25 nM ERK1, 400 μM ATP, 500 nM FI-Erktide, 22 min at room temperature; read-out: IC50 of Exemplified Compounds Against MEK1
Method: The deletion from residues 32-51, and the two mutations, S218E and S222D, may be obtained by quick change PCR.
Reaction product is determined quantitatively by fluorescent polarization using progressive IMAP beads from Molecular Devices.
The reaction mixture may then be incubated at room temperature for 22 min, and quenched and developed by addition of 20 μl of 1:200 dilution of progressive IMAP beads (Molecular Devices) in 80% buffer A, 20% buffer B and 0.003% Tween 20. Fluorescence polarization of the resulting reaction mixtures may be measured after a 1 hour incubation at room temperature.
IC50 values may be calculated by non-linear curve fitting of the compound concentrations and fluorescence polarization signal to the standard IC50 equation.

T1 sequence (Q02750 with tags, fused parts or gaps DEL33-52/S218E/S222D): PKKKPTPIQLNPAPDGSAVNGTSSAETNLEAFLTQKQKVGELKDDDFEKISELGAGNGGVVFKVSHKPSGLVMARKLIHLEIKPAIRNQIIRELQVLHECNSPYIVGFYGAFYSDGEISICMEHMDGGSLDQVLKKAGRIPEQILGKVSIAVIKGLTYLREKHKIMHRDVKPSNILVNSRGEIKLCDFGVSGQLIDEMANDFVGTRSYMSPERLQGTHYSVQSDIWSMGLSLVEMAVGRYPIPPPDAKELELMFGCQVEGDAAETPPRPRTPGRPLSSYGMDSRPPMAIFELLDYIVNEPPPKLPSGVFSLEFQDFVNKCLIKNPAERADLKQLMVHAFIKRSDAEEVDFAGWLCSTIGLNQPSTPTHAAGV

IC50 [nM]	SMILES
≤ 100	O=C(O)c1c(Nc2ccc(I)cc2F)c(F)c(=O)n2c1CCC2 [Example 1, 6-Fluoro-7-(2-fluoro-4-iodophenylamino)-5-oxo-1,2,3,5-tetrahydroindolizine-8-carboxylic acid]
≤ 100	O=C(NOC[C@H](O)CO)c1c(Nc2ccc(I)cc2F)c(F)c(=O)n2c1CCC2 [Example 2, (R)—N-(2,3-Dihydroxypropoxy)-6-fluoro-7-(2-fluoro-4-iodophenylamino)-5-oxo-1,2,3,5-tetrahydroindolizine-8-carboxamide]
≤ 100	O=C(NOC(CO)CO)c1c(Nc2ccc(I)cc2F)c(F)c(=O)n2c1CCC2 [Example 3, N-(1,3-Dihydroxypropan-2-yloxy)-6-fluoro-7-(2-fluoro-4-iodophenylamino)-5-oxo-1,2,3,5-tetrahydroindolizine-8-carboxamide]
≤ 100	O=C(NOCCO)c1c(Nc2ccc(I)cc2F)c(F)c(=O)n2c1CCC2 [Example 4, 6-Fluoro-7-(2-fluoro-4-iodophenylamino)-N-(2-hydroxyethoxy)-5-oxo-1,2,3,5-tetrahydroindolizine-8-carboxamide]
≤ 100	O=C(NOC[C@@H](O)CO)c1c(Nc2ccc(I)cc2F)c(F)c(=O)n2c1CCC2 [Example 5, (S)—N-(2,3-Dihydroxypropoxy)-6-fluoro-7-(2-fluoro-4-iodophenylamino)-5-oxo-1,2,3,5-tetrahydroindolizine-8-carboxamide]
≤ 100	O=C(NOCCO)c1c(Nc2ccc(I)cc2F)c(F)c(=O)n2c1CCCC2 [Example 7, 7-Fluoro-8-(2-fluoro-4-iodophenylamino)-N-(2-hydroxyethoxy)-6-oxo-2,3,4,6-tetrahydro-1H-quinolizine-9-carboxamide]
≤ 100	Cc1c(Nc2ccc(I)cc2F)c(C(=O)NOCCO)c2n(c1=O)CCC2 [Example 8, 7-(2-Fluoro-4-iodophenylamino)-N-(2-hydroxyethoxy)-6-methyl-5-oxo-1,2,3,5-tetrahydroindolizine-8-carboxamide]
≤ 100	O=C(NOCCO)c1c(Nc2ccc(I)cc2F)c(Cl)c(=O)n2c1CCC2 [Example 10, 6-Chloro-7-(2-fluoro-4-iodophenylamino)-N-(2-hydroxyethoxy)-5-oxo-1,2,3,5-tetrahydroindolizine-8-carboxamide]
≤ 100	C#Cc1ccc(Nc2c(C(=O)NOCCO)c3n(c(=O)c2F)CCC3)c(F)c1 [Example 11, 7-(4-Ethynyl-2-fluorophenylamino)-6-fluoro-N-(2-hydroxyethoxy)-5-oxo-1,2,3,5-tetrahydroindolizine-8-carboxamide]
